Assay results from patent US20240208935A1, “COMPOSITIONS AND METHODS FOR TREATING NEURODEGENERATIVE DISEASES” (The Regents of the University of California, priority 2021, published 2024).

Assays:
Assay type in all cases: cell-based, mice
[1] = test system: γ-oscillations in the CA3 region hippocampal slices; assay: In vitro KA-induced γ-oscillations in the CA3 region hippocampal slices; settings: 1 nM; 2 min epochs before and after application; 50 nM kainic acid
From the text: (§1) Mice aged 8-24 weeks of both sexes will be anesthetized with halothane and decapitated according to the UCLA Chancellor's Animal Research Committee protocol. Horizontal 350 μm hippocampal slices are cut on a Leica VT1000S Vibratome in ice-cold N-Methyl-D-Glucamine (NMDG)-based HEPES-buffered cutting solution, containing in mM: NMDG 135, D-glucose 10, MgCl2 4, CaCl20.5, KCl 1, KH2PO4 1.2, HEPES 26, kynurenic acid 3, pH 7.3-7.4, 295-297 mOsm/l, bubbled with 100% O2. […]
The oscillations can be recorded in the presence of 50 nM kainic acid in horizontally cut hippocampal slices just below the CA3 pyramidal cells layer, and the oscillations recorded in vitro correspond well to those recorded in vivo during spatial reference memory. […] The squared magnitude of the FFT of the oscillations will be analyzed between 30-120 Hz. The area under the FFT curve will be calculated between these two frequencies and compared during a 2 min epoch just before the perfusion of the drug to the last 2 min of a 10 min drug perfusion. The ratios of the areas in-drug/pre-drug will be calculated as in FIG. 1B.
γ-oscillations were recorded in the presence of 50 nM kainic acid in horizontally cut hippocampal slices just below the CA3 pyramidal cells layer. These oscillations recorded in vitro correspond well to those recorded in vivo during spatial reference memory. […]

[2] = test system: dentate gyrus granule cells (α4β2/3δ); assay: Tonic inhibition in dentate gyrus granule cells (selectivity); settings: 1 nM
From the text: In addition to the α1β2δ GABAARs of PV+INs, the following native δ-GABAARs subunit combinations are present in the brain: (α6β2δ on cerebellar granule cells; α4β2/3δ are most prominent in the forebrain where they are found among other neurons on dentate gyrus granule cells. To establish selectivity of the compounds for the α1β2δ GABAARs of PV+INs, the compounds effects in cerebellar granule cells (α6β2δ) and dentate gyrus granule cells (α4β2/3δ) will be compared.
Selectivity measurement will be performed by dividing the blocking fractions of the compounds for tonic inhibition obtained for the PV+IN above by the values determined for cerebellar and dentate gyrus granule cells.

[3] = target: T1, fast synaptic α1β2γ2 receptors (Mus musculus, UniProt P22723+P62812+P63137); assay: Phasic current recordings in fluorescently labeled PV+INs; settings: 1 nM, 1-(current in drug/current in control), read-out: fraction inhibited of the phasic current
T1 construct: from tissue; host or cells: mouse cortical and hippocampal brain slices; tdTomato-labelled PV+ interneurons
T1 sequence (P62812 28-455): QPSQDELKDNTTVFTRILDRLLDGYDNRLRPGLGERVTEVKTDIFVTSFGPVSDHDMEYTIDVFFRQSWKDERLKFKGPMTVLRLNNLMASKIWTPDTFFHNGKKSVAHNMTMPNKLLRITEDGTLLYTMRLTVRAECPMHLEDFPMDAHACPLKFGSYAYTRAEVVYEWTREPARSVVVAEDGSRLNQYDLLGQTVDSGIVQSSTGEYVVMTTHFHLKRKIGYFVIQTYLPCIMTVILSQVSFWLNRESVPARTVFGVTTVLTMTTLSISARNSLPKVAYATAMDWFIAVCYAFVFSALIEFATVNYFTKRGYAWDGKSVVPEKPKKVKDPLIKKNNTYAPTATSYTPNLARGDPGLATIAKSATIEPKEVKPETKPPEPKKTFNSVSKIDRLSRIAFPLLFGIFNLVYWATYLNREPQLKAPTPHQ
T1 sequence (P63137 25-512 limits assumed): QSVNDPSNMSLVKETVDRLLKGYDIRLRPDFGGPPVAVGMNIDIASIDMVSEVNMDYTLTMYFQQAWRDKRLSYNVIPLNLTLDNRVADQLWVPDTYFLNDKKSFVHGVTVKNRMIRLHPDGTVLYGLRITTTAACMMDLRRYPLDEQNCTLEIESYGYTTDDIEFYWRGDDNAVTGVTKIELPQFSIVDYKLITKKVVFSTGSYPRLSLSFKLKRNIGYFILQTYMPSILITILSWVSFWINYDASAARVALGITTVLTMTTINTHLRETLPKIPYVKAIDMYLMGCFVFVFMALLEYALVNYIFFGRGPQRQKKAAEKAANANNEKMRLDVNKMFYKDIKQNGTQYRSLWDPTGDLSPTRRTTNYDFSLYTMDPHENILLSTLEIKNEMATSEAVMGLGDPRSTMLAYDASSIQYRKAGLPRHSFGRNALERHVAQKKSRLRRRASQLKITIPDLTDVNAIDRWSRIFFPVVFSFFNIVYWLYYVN
T1 sequence (P22723 39-474): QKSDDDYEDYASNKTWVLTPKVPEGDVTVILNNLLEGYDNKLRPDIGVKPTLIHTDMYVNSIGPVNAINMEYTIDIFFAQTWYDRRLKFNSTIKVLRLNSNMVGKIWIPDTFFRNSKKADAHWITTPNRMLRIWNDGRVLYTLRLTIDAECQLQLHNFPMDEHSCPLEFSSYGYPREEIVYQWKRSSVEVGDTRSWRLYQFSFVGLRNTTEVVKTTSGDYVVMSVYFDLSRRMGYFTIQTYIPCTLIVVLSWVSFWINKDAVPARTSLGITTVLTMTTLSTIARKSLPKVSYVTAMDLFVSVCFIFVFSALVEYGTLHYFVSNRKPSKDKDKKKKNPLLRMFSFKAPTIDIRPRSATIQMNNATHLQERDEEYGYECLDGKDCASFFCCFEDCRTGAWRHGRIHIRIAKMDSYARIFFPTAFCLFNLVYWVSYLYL
From the text: as §1
(§2) For these experiments mice expressing hChR2(H134R)-tdTomato specifically in PV+Ins will be used. […] Cells will be voltage-clamped at 0 mV where tonic and phasic GABAAR mediated currents can be recorded without interference from excitatory events. The tonic and phasic components of the currents will be determined as published using Gaussian fits to the all-points histograms of 30 s epochs of recordings during the pre-drug period, 5-10 min after the washin of the drug to be tested, and 1-2 min after washing-in 40 μM of the pan-GABAAR blocker gabazine (SR-95531). The magnitude of the tonic and phasic currents willbe determined by subtracting the currents in the presence of gabazine. […]

α1β2δ GABAARs of PV+INs = target: T2, α1β2δ GABAARs of PV+INs (Mus musculus, UniProt P22933+P62812+P63137); assay: Tonic current recordings in fluorescently labeled PV+INs; settings: 1 nM, 1-(current in drug/current in control), read-out: fraction inhibited of the tonic current
T2 construct: the native α1β2δ receptors of PV+INs; from tissue; host or cells: mouse cortical and hippocampal brain slices; tdTomato-labelled PV+ interneurons
T2 sequence (P62812 28-455): as the sequence (P62812 28-455) above
T2 sequence (P63137 26-512): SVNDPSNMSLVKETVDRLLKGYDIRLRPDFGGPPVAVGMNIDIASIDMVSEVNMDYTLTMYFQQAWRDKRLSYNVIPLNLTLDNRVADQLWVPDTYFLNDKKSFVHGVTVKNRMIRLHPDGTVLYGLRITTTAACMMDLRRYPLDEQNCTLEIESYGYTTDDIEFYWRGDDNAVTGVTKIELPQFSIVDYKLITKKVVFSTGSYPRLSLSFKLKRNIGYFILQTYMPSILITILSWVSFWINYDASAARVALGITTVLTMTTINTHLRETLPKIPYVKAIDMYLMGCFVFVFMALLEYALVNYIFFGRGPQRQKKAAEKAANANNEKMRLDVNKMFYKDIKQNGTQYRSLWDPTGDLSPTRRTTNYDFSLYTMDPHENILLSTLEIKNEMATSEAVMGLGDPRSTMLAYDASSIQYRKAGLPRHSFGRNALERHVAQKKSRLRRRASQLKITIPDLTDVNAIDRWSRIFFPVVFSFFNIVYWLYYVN
T2 sequence (P22933 25-449): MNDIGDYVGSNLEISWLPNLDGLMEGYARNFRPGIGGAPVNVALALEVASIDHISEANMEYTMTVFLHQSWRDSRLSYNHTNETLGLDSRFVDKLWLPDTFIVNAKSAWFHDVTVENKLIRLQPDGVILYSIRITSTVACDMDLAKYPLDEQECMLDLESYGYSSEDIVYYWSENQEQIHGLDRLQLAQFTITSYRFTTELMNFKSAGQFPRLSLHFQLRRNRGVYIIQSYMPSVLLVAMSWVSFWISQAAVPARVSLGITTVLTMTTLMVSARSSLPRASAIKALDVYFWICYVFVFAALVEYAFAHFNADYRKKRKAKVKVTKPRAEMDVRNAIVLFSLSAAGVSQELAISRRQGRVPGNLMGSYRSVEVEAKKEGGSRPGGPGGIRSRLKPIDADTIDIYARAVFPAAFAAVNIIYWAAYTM
From the text: as §1, §2

How did the “ratio of the drug/control areas under the FFT curve between 30-120 Hz” value [1] turn out when `On1cc(C2CCNCC2)c(Cc2ccc3ccccc3c2)n1` [DDL-920, 3-(naphthalen-2-ylmethyl)-4-(piperidin-4-yl)-1H-pyrazol-1-ol] was run?
Its value is 4.26.

What about the “blocking fraction for tonic inhibition in dentate granule cells” value [2] of the same compound?
The value was 0.376.

What about the “selectivity, PV+IN vs dentate granule cell blocking fraction of tonic inhibition” value ([2]; PV+IN/dentate granule cell) of the same compound?
The value was 2.11.

And the inhibition at 0.001 µM [3]?
Its inhibition at 0.001 µM is 1.1%.

What about the inhibition at 0.001 µM (α1β2δ GABAARs of PV+INs) of the same compound?
Its inhibition at 0.001 µM is 79.2%.
